Marks after values point to notes of the source that are not given here.
Columns and labels:
[1] = isolated perfused respiring rat lung (IPRLu) model, intratracheal instillation; details: for recovery at 20 min / half-life: male, CD, rat, 100 μL, pH 7.4; for recovery at 20 min: isolated perfused respiring rat lung (IPRLu), lungs in situ; for %SDiP: solubilised dose in perfusate at 20 mins; for %TDiP: total dose in perfusate at 20 mins
Description: The IPRLu model, including surgery, dosing and sample collection, was performed by the Laboratory Animal Sciences department at GSK. Methodology was based on that described by Tronde et al. (23;24) but with lungs remaining in situ and intratracheal instillation as the dosing technique. Prior to surgery male CD rats were anaesthetised with intraperitoneal ketamine and medetomidine (Dormitor^TM) at […] and 0.5 ml/kg respectively. In addition, 50U of heparin was administered intravenously via a tail vein. Following confirmation of anaesthesia, the front of the rib cage was removed to access heart and lungs, and the trachea cannulated and secured with a ligature. Respiration was transferred to a positive pressure small animal ventilator (Harvard Apparatus Ltd, Edenbridge, Kent, UK) and maintained at 40 breaths per minute with a tidal volume of 1.8 ml. Following exsanguination, the pulmonary artery and vein were cannulated through incisions in the right and left ventricles in order to isolate the blood pulmonary circulatory system. The rat was then raised and maintained at an angle of 45° using a custom made elevating chamber similar to that described by Brain et al. ([26]). […] After an initial first pass to flush blood from the lung vasculature, the perfusion buffer was then recirculated for approximately 10 minutes to equilibrate and attain the required flow rate. Lungs were visually inspected for leaks and signs of oedema ([27]). Compounds were administered either discretely or co-formulated (2–4 compounds) and experiments were carried out in duplicate. Doses (100 μL) were administered to the trachea slightly above the bifurcation point by introduction of a 50 mm needle Hamilton syringe into the tracheal cannula followed by 3 x 1 ml of air. The tracheal cannula was then reattached to the ventilator and total perfusate was collected over 1 min intervals for 20 mins. Perfusate aliquots (1 ml) were frozen (-20°C) along with terminal lung samples prior to analysis.
Homogenised lung and perfusate samples underwent protein precipitation by addition of a 3-fold excess of acetonitrile containing an internal standard. Following either filtration or centrifugation the resulting filtrate or supernatant was typically dried down under a nitrogen stream and then reconstituted in the mobile phase used for separation by HPLC. Following sample preparation lung and perfusate samples, along with residual dose formulations (pre- and post-centrifugation) were analysed by HPLC tandem mass spectrometry (LC-MS/MS), typically using a generic reverse phase chromatography gradient method with separation on a C18 column (50 x 2.1 mm, 3 μm) and an acidified mobile phase.
The cumulative amount of parent compound crossing the lung into the perfusate by the end of the 20 minute experiment was expressed as % of the total dose or as % of the dose originally in solution (solubilised dose). The relative rate of absorption across the lungs was also calculated, the percentage of the administered dose remaining in the lungs was plotted semilogarithimically against time and the initial rate of absorption expressed as a half-life.

[2] = % of dose in solution in the dose formulation (dose analysis pre- and post-centrifugation); format: physicochemical; details: aqueous dose formulation
Source text: All compounds were formulated in an aqueous vehicle, the majority (79%) containing 0.2% Tween 80 in either water or saline. Due to the diverse nature of the molecules investigated, formulations were a mix of solutions and suspensions ranging from <1 to 100% compound in solution. Compound solubility effects were investigated using a tool compound available in three micronised salt forms with varying solubilities. The free base (FB), hydroxynapthoate (HNA) and hydrochloride (HCl) forms were each administered to the IPRLu model at a dose equivalent to 15 μg free base.
Data generated with the IPRLu model on 17 marketed drugs (14 out of 17 designed for inhaled delivery) are shown in Table I. All the compounds display a moderate to high extent of total dose in the perfusate at 20 minutes (10–100%), in keeping with the in-house observation that compounds displaying < <10% carry a high risk of accumulation in the lung upon repeat dosing, which can lead to developability issues and high attrition rates. The marketed compound set can be classified into two groups according to their solubility. The first group are reasonably soluble in the dose formulation (>80% of the parent compound in solution, determined by dose analysis pre- and post-centrifugation) and display similar values for %SDiP and %TDiP. The second group are only partially soluble in the dose formulation (<80% of the parent compound in solution) and therefore display greater values for %SDiP compared to %TDiP.

[3] = other: intratracheal instillation
[4] = mean (n = 2), range in brackets
[5] = solubility in dose vehicle determined post study on a discrete weighing of the compound

SMILES | recovery at 20 min [1, 3] | half-life [1, 3] | %SDiP [1, 4] | %TDiP [1, 4] | % Dose in solution [2] | further results
CC1(C)O[C@@H]2C[C@H]3[C@@H]4C[C@H](F)C5=CC(=O)C=C[C@]5(C)[C@H]4[C@@H](O)C[C@]3(C)[C@]2(C(=O)CO)O1 [Flunisolide] | 139% | 15 min | 96 (66–126) % | 41 (28–53) % | 42% | %SDiP ([1]; mean (n = 2), range in brackets, listed as flunisolide): 100%
C[C@@H]1C[C@H]2[C@@H]3C[C@H](F)C4=CC(=O)C=C[C@]4(C)[C@@]3(F)[C@@H](O)C[C@]2(C)[C@@]1(OC(=O)c1ccco1)C(=O)SCF [Fluticasone Furoate] | – | 153 min | – | 10 (7–12) % | 3.2% | %SDiP [1, 5]: 300^c %; %SDiP ([1]; solubility in dose vehicle determined post study on a discrete weighing of the compound, listed as fluticasone furoate): > 100%
OCc1cc(C(O)CNCCCCCCOCCCCc2ccccc2)ccc1O (stereo not shown) [Salmeterol] | 69% | 146 min | 41 (16–66) % | 15 (6–24) % | 36% | –
C[N+]1(C)[C@@H]2C[C@@H](OC(=O)C(O)(c3cccs3)c3cccs3)C[C@H]1[C@@H]1O[C@@H]12 [Tiotropium Bromide] | – | – | – | 61 (59–62) % | – | half-life [1]: 16 min
C=CC[C@@H]1/C=C(\C)C[C@H](C)C[C@H](OC)[C@H]2O[C@@](O)(C(=O)C(=O)N3CCCC[C@H]3C(=O)O[C@H](/C(C)=C/[C@@H]3CC[C@@H](O)[C@H](OC)C3)[C@H](C)[C@@H](O)CC1=O)[C@H](C)C[C@@H]2OC [Tacrolimus (prograf), Tacrolimus] | – | 28 min | 178 (176–180) % | 38 (38) % | 21% | %SDiP ([1]; mean (n = 2), range in brackets, listed as tacrolimus): > 100%
N=C(N)NC(=O)c1nc(Cl)c(N)nc1N [Amiloride] | 81% | 8 min | – | – | 100% | –
CCCC1O[C@@H]2C[C@H]3[C@@H]4CCC5=CC(=O)C=C[C@]5(C)[C@H]4[C@@H](O)C[C@]3(C)[C@]2(C(=O)CO)O1 (stereo partly shown) [Budesonide] | 84% | 3.3 min | 551 (540–561) % | 77 (76–79) % | 14% | %SDiP ([1]; mean (n = 2), range in brackets, listed as budesonide): > 100%
Nc1c(Br)cc(Br)cc1CN[C@H]1CC[C@H](O)CC1 [Ambroxol] | 70% | 39 min | – | – | 95% | –
CCc1cc2c(cc1CC)CC(NC[C@H](O)c1ccc(O)c3[nH]c(=O)ccc13)C2 [Indacaterol] | 91% | 273 min | 12 (12) % | 11 (10,11) % | 88% | %SDiP ([1]; mean (n = 2), range in brackets, listed as indacaterol): 12%
COc1ccc(C[C@@H](C)NC[C@H](O)c2ccc(O)c(NC=O)c2)cc1.COc1ccc(C[C@@H](C)NC[C@H](O)c2ccc(O)c(NC=O)c2)cc1.O=C(O)/C=C/C(=O)O [Formoterol Fumerate] | – | – | 47 (42–52) % | 47 (42–52) % | 100% | Lung T1/2 (mins) ([1]; lung absorption half-life, mean (n = 2), range in brackets): 24 (22–26) mins; Recovery of total dose (%) ([1]; only where lung analysis was carried out, mean (n = 2), range in brackets): 73 (70–76) %
CCN(CC)CC(=O)Nc1c(C)cccc1C [Lidocaine] | – | – | – | 75 (64–82) % | 100% | %SDiP [1, 5]: 75^c %
CCC(=O)O[C@]1(C(=O)SCF)[C@H](C)C[C@H]2[C@@H]3C[C@H](F)C4=CC(=O)C=C[C@]4(C)[C@@]3(F)[C@@H](O)C[C@@]21C [Fluticasone Propionate] | – | 115 min | – | 10 (10) % | 0.5% | %SDiP [1, 5]: 2000^c %; %SDiP ([1]; solubility in dose vehicle determined post study on a discrete weighing of the compound, listed as fluticasone propionate): > 100%
CC(C)(O)c1ccccc1CC[C@@H](SCC1(CC(=O)O)CC1)c1cccc(/C=C/c2ccc3ccc(Cl)cc3n2)c1 [Montelukast] | 77% | 42 min | – | 67 (57–78) % | 73% | –
CC(C)(C)NCC(O)c1ccc(O)c(CO)c1 (stereo not shown) [Salbutamol] | 78% | – | – | – | 55% | –
CCCc1c2oc(C(=O)O)cc(=O)c2cc2c(=O)cc(C(=O)O)n(CC)c12 [Nedocromil] | 85% | 32 min | 125 (83–166) % | 32 (23–40) % | 24% | %SDiP ([1]; mean (n = 2), range in brackets, listed as nedocromil): > 100%
CC(C)[N+]1(C)[C@@H]2CC[C@H]1C[C@@H](OC(=O)C(CO)c1ccccc1)C2 (stereo partly shown) [Ipratropium Bromide] | – | – | – | – | 100% | –
CC(=O)N[C@H]1[C@H]([C@H](O)[C@H](O)CO)OC(C(=O)O)=C[C@@H]1N=C(N)N [Zanamivir] | 104% | 7 min | – | 100 (100–100) % | – | –

From article PMC5040732, “Development of a Novel Quantitative Structure-Activity Relationship Model to Accurately Predict Pulmonary Absorption and Replace Routine Use of the Isolated Perfused Respiring Rat Lung Model” (Pharmaceutical Research, 2016)
